Structures are written as SMILES. Where two headings read alike, the source gives them in different places.

Data set [1] addresses T1, COX-1 (Mus musculus, UniProt P22437).
T1 construct: endogenous in cells; host or cells: J774 murine monocyte/macrophage cell line
T1 sequence (P22437 27-602): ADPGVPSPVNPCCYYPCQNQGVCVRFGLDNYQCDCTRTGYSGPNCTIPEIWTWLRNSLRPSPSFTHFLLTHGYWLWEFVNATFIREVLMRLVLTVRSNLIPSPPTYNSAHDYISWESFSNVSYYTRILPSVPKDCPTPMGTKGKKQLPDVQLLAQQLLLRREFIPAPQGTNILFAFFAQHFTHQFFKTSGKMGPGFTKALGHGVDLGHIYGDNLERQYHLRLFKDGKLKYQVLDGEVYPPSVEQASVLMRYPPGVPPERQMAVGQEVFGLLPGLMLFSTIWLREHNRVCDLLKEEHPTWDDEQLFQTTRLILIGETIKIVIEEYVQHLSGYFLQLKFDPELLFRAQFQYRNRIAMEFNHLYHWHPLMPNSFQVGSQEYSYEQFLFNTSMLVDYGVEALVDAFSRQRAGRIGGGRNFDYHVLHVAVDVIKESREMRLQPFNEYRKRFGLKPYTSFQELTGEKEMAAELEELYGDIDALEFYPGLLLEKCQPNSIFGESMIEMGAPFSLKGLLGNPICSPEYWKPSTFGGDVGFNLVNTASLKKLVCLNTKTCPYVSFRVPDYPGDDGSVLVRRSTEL
Conditions: Table 1, reported by reference; cited from earlier work.

The target in data set [2] is T2, COX-2 (Mus musculus, UniProt Q05769).
T2 construct: lipopolysaccharide (LPS, 10 μg/mL) to induce COX-2; endogenous in cells; host or cells: J774 murine monocyte/macrophage cell line, LPS-stimulated
T2 sequence (Q05769 18-604): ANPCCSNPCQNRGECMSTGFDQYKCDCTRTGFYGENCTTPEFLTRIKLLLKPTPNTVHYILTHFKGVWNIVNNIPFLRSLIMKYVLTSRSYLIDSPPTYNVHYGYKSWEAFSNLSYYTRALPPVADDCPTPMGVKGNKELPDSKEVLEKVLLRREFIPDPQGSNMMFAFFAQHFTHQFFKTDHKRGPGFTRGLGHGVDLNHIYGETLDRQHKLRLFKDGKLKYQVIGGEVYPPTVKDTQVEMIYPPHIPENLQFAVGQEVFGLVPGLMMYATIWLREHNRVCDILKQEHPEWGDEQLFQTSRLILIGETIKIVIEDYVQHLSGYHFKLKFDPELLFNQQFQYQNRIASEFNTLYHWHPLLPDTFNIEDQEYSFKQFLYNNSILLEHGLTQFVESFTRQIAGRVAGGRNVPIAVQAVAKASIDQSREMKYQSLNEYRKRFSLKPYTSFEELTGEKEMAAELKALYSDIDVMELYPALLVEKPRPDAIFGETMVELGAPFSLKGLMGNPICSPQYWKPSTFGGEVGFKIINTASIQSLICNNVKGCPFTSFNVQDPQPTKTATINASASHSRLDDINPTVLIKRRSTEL
As to conditions: Table 1, reported by reference; cited from earlier work.

The test system of data set [3] is rat model of hyperalgesia induced by carragenine. The data set is described as follows: Paw pressure test, hyperalgesia induced by carragenine. The format is in vivo. As to conditions: 20 mg/Kg. On the procedure:
(§1) Male Swiss albino mice (23-25 g) and Sprague Dawley or Wistar rats (150-200 g) were used. The animals were fed a standard laboratory diet and tap water ad libitum and kept at 23±1° C. with a 12 h light/dark cycle, light on at 7 a.m.
The nociceptive threshold in the rat was determined with an analgesimeter, according to the method described by Leighton et al, G. E.; Br. J. Pharmacol. 1988, 93, 553-560. Threshold pressure was measured before and 30, 60 and 120 min after treatment. An arbitrary cut-off value of 250 g was adopted. In order to induce an inflammatory process in the rat paw carrageenan (0.1 ml, 1%) was administered i.p. 4 h before test.

Data set [4] deals with T2, COX-2. Kind of data set: Assessment of COX-2 activity in LPS-stimulated J774 cells (PGE2 radioimmunoassay). Format: cell-based, murine. On the procedure:
Cells were stimulated for 24 h with E. coli lipopolysaccharide (LPS, 10 μg/mL) to induce COX-2, in the absence or presence of test compounds, at the concentrations previously reported. The supernatants were collected for the measurement of PGE2 by radioimmunoassay.
(§2) Analysis. Throughout the time the experiments lasted, triplicate wells were used for the various conditions of treatment. Results are expressed as the mean, for 3 experiments, of the % inhibition of PGE2 production by test compounds with respect to control samples. Data fit was obtained using the sigmoidal dose-response equation (variable slope). The IC50 were calculated by GraphPad Instat program (GraphPad software).

Data set [5] relates to rat model of edema induced by carragenine. Kind of data set: Carrageenan-induced paw edema. The format is in vivo. As to conditions: 1 h, 20 mg/Kg, read-out: Edema inhibition 60 min, MPE. On the procedure: as §1
Rats paw volumes were measured using a plethysmometer. Rats received the investigated compounds 4 hours after a 0.1-ml injection of 1.0% carrageenan in the right hind paw. Five hours after the injection of carrageenan (i.e. 1 hour after the administration of the investigated compound), the paw volume of the right hind paw was measured and compared with saline/carrageenan-treated controls. Results are reported as maximum percent effect (MPE), see below for detailed explanation.
In general terms: The carrageenan paw model is a standard test of acute inflammation.

The target of data set [6] is T1, COX-1. The data set is described as follows: Assessment of COX-1 activity in J774 cells (arachidonic acid, PGE2 radioimmunoassay). Format: cell-based, murine. As to conditions: Table 8, Formula I-c. On the procedure: Stock solutions of the reference standard or of the test compounds were prepared in dimethyl sulphoxide, and an equivalent amount of dimethyl sulphoxide was included in control samples. At the end of the incubation the supernatants were collected for the measurement of PGE2 by radioimmunoassay.
as §2

Where [7] appears, read: 0.5 h, 30 min, read-out: Analgesia 30 min MPE.
The mark [8] stands for this setting: 1 h, 60 min, read-out: Analgesia 60 min MPE.
Setting [9] is: Table 8, Formula I-c, read-out: COX-2 IC50.

Regarding `Cc1c(CC(=O)O)cc(-c2ccc(S(C)(=O)=O)cc2)n1-c1ccc(C(F)(F)F)cc1` [Compound 3a], the IC50 (in general, the midpoint of a concentration-inhibition curve) at COX-1 [1] was above 100 µM. For the same molecule, the “COX-1/COX-2 Selectivity Index (IC50 ratio)” value on COX-2 [2] is listed as above 900.
As for `CCOC(=O)Cc1cc(-c2ccc(S(C)(=O)=O)cc2)n(-c2ccc(C)cc2)c1C` [Compound 2b, Ethyl 2-[1-(4-methyl)phenyl-2-methyl-5-(4-methylsulphonyl)phenyl-1H-pyrrol-3-yl]acetate], the 50% inhibitory concentration (IC50) on COX-1 [1] was above 100 µM. Besides, the “COX-1/COX-2 Selectivity Index (IC50 ratio)” value on COX-2 [2] is recorded as above 200.
Regarding `CCOC(=O)C(O)c1cc(-c2ccc(S(C)(=O)=O)cc2)n(-c2ccccc2)c1C` (racemic) [Example 7, Ethyl[2-hydroxy-2-[2-methyl-5-(4-methylsulphonyl)phenyl-1-phenyl-1H-pyrrol-3-yl]]acetate], the melting point (in general, the temperature of the solid-liquid transition) turned out to be 145 °C.
For the molecule `CCOC(=O)Cc1cc(-c2ccc(S(C)(=O)=O)cc2)n(-c2cccc(F)c2)c1C` [Compound 4b, Ethyl 2-[1-(3-fluoro)phenyl-2-methyl-5-(4-methylsulphonyl)phenyl-1H-pyrrol-3-yl]acetate, reference compound], the inhibition in vivo at 20 mg/kg amounted to 28% in data set [3] (setting [7]), 40% in data set [3] (setting [8]) and 30% in data set [5] (60 min). Also, on COX-2 [4], the selectivity is given as above 10000. The 50% inhibitory concentration (IC50) at COX-2 [4] (read-out: in vitro COX-2 inhibitory potency IC50) stood at 0.01 µM.
Regarding `CCOC(=O)Cc1cc(-c2ccc(S(C)(=O)=O)cc2)n(-c2ccccc2)c1C` [Compound 1b, Ethyl 2-[2-methyl-5-(4-methylsulphonyl)phenyl-1-phenyl-1H-pyrrol-3-yl]acetate, reference compound], the inhibition in vivo at 20 mg/kg is 18% in data set [3] (setting [7]), 30% in data set [3] (setting [8]) and 10% in data set [5] (60 min). The 50% inhibitory concentration (IC50) on COX-1 [1] was above 100 µM. Also, the “COX-1/COX-2 Selectivity Index (IC50 ratio)” value at COX-2 [2] is above 2500.
On to `CCCCOC(=O)Cc1cc(-c2ccc(S(C)(=O)=O)cc2)n(-c2ccccc2)c1C` [Example 6, n-Butyl[1-phenyl-2-methyl-5-(4-methylsulphonyl)phenyl-1H-pyrrol-3-yl]acetate], for which the melting point worked out at 124 °C. On COX-2 [4] (Table 2, Formula Ia), the “COX-1/COX-2 Selectivity Index (IC50 ratio)” value is above 7100.
For `Cc1c(CC(=O)O)cc(-c2ccc(S(C)(=O)=O)cc2)n1-c1ccccc1` [Compound 1a, 2-[2-methyl-5-(4-methylsulphonyl)phenyl-1-phenyl-1H-pyrrol-3-yl]acetic acid], the IC50 on COX-1 [1] is above 100 µM. In addition, the “COX-1/COX-2 Selectivity Index (IC50 ratio)” value on COX-2 [2] was above 100.
As for `CCOC(=O)Cc1cc(-c2ccc(S(C)(=O)=O)cc2)n(-c2ccc(C(F)(F)F)cc2)c1C` [Compound 3b, Ethyl 2-[2-methyl-5-(4-methylsulphonyl)phenyl-1-(4-trifluoromethyl)phenyl-1H-pyrrol-3-yl]acetate], the IC50 at COX-1 [1] was above 100 µM. Also, the “COX-1/COX-2 Selectivity Index (IC50 ratio)” value on COX-2 [2] was above 1600.
`CCOC(=O)C(O)c1cc(-c2ccc(S(C)(=O)=O)cc2)n(-c2ccc(OC)cc2)c1C` (racemic) [Example 8, Ethyl[2-hydroxy-2-[1-(4-methoxy)phenyl-2-methyl-5-(4-methylsulphonyl)phenyl-1H-pyrrol-3-yl]]acetate] registered a melting point of 130 °C.
Regarding `Cc1c(CC(=O)N(C)C)cc(-c2ccc(S(C)(=O)=O)cc2)n1-c1ccccc1` [Example 15, N,N-Dimethyl-[2-methyl-5-(4-methylsulphonyl)phenyl-1-phenyl-1H-pyrrol-3-yl]acetamide], the melting point was 175 to 179 °C. On COX-1 [6], this molecule displayed an IC50 above 100 µM. For the same molecule, the half-maximal inhibitory concentration (IC50) at COX-2 [4] (setting [9]) is 0.58 µM.
On the same counts, the results for `CNC(=O)Cc1cc(-c2ccc(S(C)(=O)=O)cc2)n(-c2ccccc2)c1C` [Example 13, N-Methyl-[2-methyl-5-(4-methylsulphonyl)phenyl-1-phenyl-1H-pyrrol-3-yl]acetamide] are 178 to 181 °C, above 100 µM and 1 µM.
On to `CCOC(=O)C(O)c1cc(-c2ccc(S(C)(=O)=O)cc2)n(-c2cccc(F)c2)c1C` (racemic) [Example 9, Ethyl[2-hydroxy-2-[1-(3-fluoro)phenyl-2-methyl-5-(4-methylsulphonyl)phenyl-1H-pyrrol-3-yl]]acetate], for which the inhibition in vivo at 20 mg/kg in data set [3] (0.5 h, Table 7, 30 min, read-out: Analgesia 30 min MPE) stood at 80%; in data set [3] (1 h, Table 7, 60 min, read-out: Analgesia 60 min MPE) it was 40%; in data set [5] (Table 7, 60 min), 40%. The “COX-1/COX-2 Selectivity Index (IC50 ratio)” value at COX-2 [4] (Table 6, Formula Ib) is on record as above 310. For the same molecule, the 50% inhibitory concentration (IC50) on COX-2 [4] (Table 6, Formula Ib, read-out: COX-2 IC50) was determined as 0.32 µM.
Take `Cc1ccc(-n2c(-c3ccc(S(C)(=O)=O)cc3)cc(CC(=O)O)c2C)cc1` [Compound 2a, 2-[1-(4-methyl)phenyl-2-methyl-5-(4-methylsulphonyl)phenyl-1H-pyrrol-3-yl]acetic acid]: the IC50 at COX-1 [1] is above 100 µM. In addition, the “COX-1/COX-2 Selectivity Index (IC50 ratio)” value at COX-2 [2] is given as above 200.
`CCCNC(=O)NCCc1cc(-c2ccc(S(C)(=O)=O)cc2)n(-c2ccccc2)c1C` [Example 39, N-[2-(2-Methyl-5-(4-(methylsulphonyl)phenyl)-1-phenyl-1H-pyrrol-3-yl)ethyl]-3-propyl urea]: the melting point is 157 to 160 °C.

The record behind these values is patent US7906551B2 (Rottapharm S.p.A., priority 2006, dated 2011).
